Values of other authors, collected in patent publication US20050100563A1, “Antifungal compositions and methods of treatment therewith” (priority 2001, published 2005).

Conditions: in water; stated in parentheses, no measurement described

[O]=[Sn]([F])[F] [stannic oxyfluoride]
solubility: approximately 0.3%
